Results taken from US10632106B2, “Methods of cancer treatment with 2-(1′H-Indole-3′-carbonyl)-thiazole-4-carboxylic acid methyl ester” (Ariagen, Inc., priority 2009, dated 2020).

System: Ketr-3 (human kidney cancer) xenografts
Experiment: Ketr-3 xenograft growth inhibition
Type: in vivo
Conditions: ITE 100-200 mg/kg i.p. once daily
Protocol: All the procedures related to animal handling, care, and the treatment in the study were performed following guidelines of KeyGen Biotechn Co., Ltd. (Nanjing, China), a contract research organization we hired, based on the guidance of the Association for Assessment and Accreditation of Laboratory Animal Care (AAALAC). Animals were checked for any effects of tumor growth and drug treatment on normal behavior such as mobility, food and water consumption, body weight gain/loss (bodyweights were measured every two days), eye/hair matting, and any other abnormal effect. Death and observed clinical signs were recorded. Individual animals with a tumor volume exceeding 3,000 mm^3 or animals of a group with a mean tumor volume exceeding 2,000 mm^3 were euthanized. In addition, animals showing signs of severe distress and/or pain or losing the capability of accessing adequate food or water were humanely sacrificed.
Cell lines HCT116, Siha, MFC were cultured in DMEM medium (high glucose) supplemented with 10% fetal bovine serum (FBS), SW116 and T24 in RPMI-1640 medium with 10% FBS, M14 and A375 in DMEM medium (high glucose) with 10% calf serum (CS), SGC7901 and Ketr-3 in RPMI-1640 medium with 10% CS, and CFPAC-1 in IMDM medium with 10% FBS. All of the cells were cultured, in the presence of 100 U/ml penicillin and 100 μg/ml streptomycin, at 37° C. in an atmosphere of 5% CO2 in air. […] The cells growing in an exponential phase were harvested and counted for tumor inoculation. Cell lines 5180 and U14 were maintained in ascites (peritoneal cavity fluid) of mice and were harvested and counted for tumor inoculation. […]
Tumor volume was measured every two days in two dimensions using a caliper and the volume was calculated with a formula of: V=0.5 a×b^2, where a and b are the long and short diameter (in mm) of a tumor, respectively. […] The TGD was calculated as: TGD=T−C, where T was the time (in days) required for tumors in a drug treated group to reach a predetermined mean tumor volume and C the time (in days) in the control group to reach the same volume. […]

`COC(=O)c1csc(C(=O)c2c[nH]c3ccccc23)n1` [ITE, 2-(1′H-indole-3′-carbonyl)-thiazole-4-carboxylic acid methyl ester] was tested, and the TGD (TGD at Vol. 500) was 9 days, the “TGI (%)” value (TGI at day 28, TGI=(1−ΔT/ΔC)×100%) was 74% and the “Weight Loss” value (end of therapy relative to beginning) was 13%.
